The values that follow are results of earlier work, collected in US20250367122A1, “PHARMACEUTICAL COMPOSITION CONTAINING 1-{2-[(3S,4R)-1-{[(3R,4R)-1-CYCLOPENTYL-3-FLUORO-4-(4-METHOXYPHENYL)PYRROLIDIN-3-YL]CARBONYL}-4-(METHOXYMETHYL)PYRROLIDIN-3-YL]-5-(TRIFLUOROMETHYL)PHENYL}PIPERIDINE-4-CARBOXYLIC ACID OR PHARMACEUTICALLY ACCEPTABLE SALT OR CO-CRYSTAL THEREOF” (MITSUBISHI TANABE PHARMA CORPORATION, priority 2022, published 2025).

In this data set the test system is melanocortin receptor (MCR). The settings on record: as described in Patent Document 1.

Take `COC[C@H]1CN(C(=O)[C@]2(F)CN(C3CCCC3)C[C@H]2c2ccc(OC)cc2)C[C@@H]1c1ccc(C(F)(F)F)cc1N1CCC(C(=O)O)CC1` [Compound A, 1-{2-[(3S,4R)-1-{[(3R,4R)-1-cyclopentyl-3-fluoro-4-(4-methoxyphenyl)pyrrolidin-3-yl]carbonyl}-4-(methoxymethyl)pyrrolidin-3-yl]-5-(trifluoromethyl)phenyl}piperidine-4-carboxylic acid]: the MCR activation effect result is listed as “excellent”.
